ChEMBL document CHEMBL1122775, “NMR spectroscopic studies of intermediary metabolites of cyclophosphamide. A comprehensive kinetic analysis of the interconversion of cis- and trans-4-hydroxycyclophosphamide with aldophosphamide and the concomitant partitioning of aldophosphamide between irreversible fragmentation and reversible …” (J Med Chem, 1984)

Experiment: pKa was determined
Format: physicochemical

| SMILES | pKa |
| --- | --- |
| COc1ccc(N)cc1 | 5.3 |
| CC(C)(C)N [TERT-BUTYLAMINE] | 10.8 |
